From patent publication US8143263B2, “Therapeutic agents” (Astrazeneca AB, priority 2008, dated 2012)

What follows are compounds tested against T1, recombinant human pancreatic GLK (Homo sapiens, UniProt P35557) (assay: biochemical).
T1 sequence (P35557 1-465): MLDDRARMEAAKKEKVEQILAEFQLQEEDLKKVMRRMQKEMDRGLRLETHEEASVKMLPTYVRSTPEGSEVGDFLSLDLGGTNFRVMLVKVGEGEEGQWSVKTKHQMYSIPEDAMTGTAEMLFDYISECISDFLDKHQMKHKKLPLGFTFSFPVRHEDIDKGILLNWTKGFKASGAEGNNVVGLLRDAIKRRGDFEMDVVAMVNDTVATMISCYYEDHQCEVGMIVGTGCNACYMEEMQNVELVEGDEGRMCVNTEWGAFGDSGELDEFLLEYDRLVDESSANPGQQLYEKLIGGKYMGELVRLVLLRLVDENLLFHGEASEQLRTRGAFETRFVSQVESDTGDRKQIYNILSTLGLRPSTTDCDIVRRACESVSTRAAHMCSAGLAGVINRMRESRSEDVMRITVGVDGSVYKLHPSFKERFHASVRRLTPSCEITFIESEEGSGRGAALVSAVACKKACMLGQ

With `C[C@H](CO)OC[C@H](Oc1ncnc2c1cnn2-c1ncccc1Cl)C(=O)Nc1ccc(F)cn1` [Example 191, (2S)-2-(1-(3-chloropyridin-2-yl)-1H-pyrazolo[3,4-d]pyrimidin-4-yloxy)-N-(5-fluoropyridin-2-yl)-3-((R)-1-hydroxypropan-2-yloxy)propanamide] as the compound, how does the EC50 read?
Its EC50 is 840 nM.

`Cc1c(Cl)cccc1-n1ncc2c(O[C@@H](COCCO)C(=O)Nc3ccc(Cl)cn3)ncnc21` [Example 173, (2S)-2-[1-(3-chloro-2-methylphenyl)pyrazolo[4,5-e]pyrimidin-4-yl]oxy-N-(5-chloropyridin-2-yl)-3-(2-hydroxyethoxy)propanamide] was tested. Which EC50 did it give?
The EC50 was 920 nM.

With `O=C(Nc1ccccn1)[C@H](CN1CC(O)C1)Oc1ncnc2c1cnn2-c1c(F)cccc1Cl` [Example 222, (2S)-2-[1-(2-chloro-6-fluoro-phenyl)pyrazolo[3,4-d]pyrimidin-4-yl]oxy-3-(3-hydroxyazetidin-1-yl)-N-(2-pyridyl)propanamide] as the compound, how does the EC50 read?
Its EC50 is 140 nM.

With `CCOC[C@H](Oc1ncnc2c1cnn2-c1ccccc1C(F)(F)F)C(=O)Nc1cnc(C)cn1` [Example 133, (2S)-3-ethoxy-N-(5-methylpyrazin-2-yl)-2-[1-[2-(trifluoromethyl)phenyl]pyrazolo[4,5-e]pyrimidin-4-yl]oxypropanamide] as the compound, how does the EC50 read?
The EC50 was 1100 nM.

`COC[C@@H](Oc1ncnc2c1cnn2-c1ccccc1Cl)C(=O)Nc1ccc(C)cn1` [Example 88, (2R)-2-(1-(2-chlorophenyl)-1H-pyrazolo[3,4-d]pyrimidin-4-yloxy)-3-methoxy-N-(5-methylpyridin-2-yl)propanamide] was tested. Which EC50 did it give?
The EC50 was 5100 nM.

For `COC[C@H](Oc1ncnc2c1cnn2-c1ccc(F)cc1Cl)C(=O)Nc1ccc(C)cn1` [Example 96, (2S)-2-(1-(2-chloro-4-fluorophenyl)-1H-pyrazolo[3,4-d]pyrimidin-4-yloxy)-3-methoxy-N-(5-methylpyridin-2-yl)propanamide], which EC50 is on record?
The EC50 was 1300 nM.

How did the EC50 turn out when `O=C(Nc1ccc(F)cn1)[C@H](CN1CC(O)C1)Oc1ncnc2c1cnn2-c1c(F)cccc1Cl` [Example 229, (2S)-2-[1-(2-chloro-6-fluoro-phenyl)pyrazolo[3,4-d]pyrimidin-4-yl]oxy-N-(5-fluoro-2-pyridyl)-3-(3-hydroxyazetidin-1-yl)propanamide] was run?
The EC50 was 110 nM.

With `CCOC[C@H](Oc1ncnc2c1cnn2-c1ncccc1Cl)C(=O)Nc1ccc(F)cn1` [Example 127d, (2S)-2-[1-(3-chloro-2-pyridyl)pyrazolo[4,5-e]pyrimidin-4-yl]oxy-3-ethoxy-N-(5-fluoro-2-pyridyl)propanamide] as the compound, how does the EC50 read?
Its EC50 is 670 nM.

`O=C(Nc1ccc(Cl)cn1)[C@H](CN1CC(O)C1)Oc1ncnc2c1cnn2-c1ccccc1Cl` [Example 226, (2S)-2-[1-(2-chlorophenyl)pyrazolo[3,4-d]pyrimidin-4-yl]oxy-N-(5-chloro-2-pyridyl)-3-(3-hydroxyazetidin-1-yl)propanamide] was tested. Which EC50 did it give?
The EC50 was 130 nM.

`N#Cc1ccc(NC(=O)[C@H](CN2CC(O)C2)Oc2ncnc3c2cnn3-c2c(Cl)cccc2C#N)nc1` [Example 224, (2S)-2-[1-(2-chloro-6-cyano-phenyl)pyrazolo[3,4-d]pyrimidin-4-yl]oxy-N-(5-cyano-2-pyridyl)-3-(3-hydroxyazetidin-1-yl)propanamide] was tested. Which EC50 did it give?
Its EC50 is 510 nM.

With `COC[C@@H](C)OC[C@H](Oc1ncnc2c1cnn2-c1ccccc1Cl)C(=O)Nc1ccc(C)cn1` [Example 153, (2S)-2-(1-(2-chlorophenyl)-1H-pyrazolo[3,4-d]pyrimidin-4-yloxy)-3-((R)-1-methoxypropan-2-yloxy)-N-(5-methylpyridin-2-yl)propanamide] as the compound, how does the EC50 read?
Its EC50 is 280 nM.

How did the EC50 turn out when `Cc1ccc(NC(=O)[C@H](COC(C)C)Oc2ncnc3c2cnn3-c2nccn2C)nc1` [Example 211, (2S)-3-isopropoxy-2-(1-(1-methyl-1H-imidazol-2-yl)-1H-pyrazolo[3,4-d]pyrimidin-4-yloxy)-N-(5-methylpyridin-2-yl)propanamide] was run?
The EC50 was 1100 nM.
